Measured values from patent publication US12522596B2, “Compounds as GLP-1R agonists” (Terns Pharmaceuticals, Inc., priority 2021, dated 2026).
Several values for one entry are separate records, joined by “and”; a condition that tells them apart may be missing. Identical values can stand only once. Like-named read-outs stand apart in the source and are kept apart here. Marks after values point to notes of the source that are not given here.

Experiment: Pharmacokinetics in hGLP-1R mice after oral dosing
Assay type: in vivo, male C57BL/6J hGLP-1R mouse
Description: IPGTT (120 min)—PK bleeding: 40 μL blood samples (all treatment groups) were collected from mice under the jaw at IPGTT-120 min after blood glucose measurement into pre-chilled EDTA-2K tubes. Blood samples were processed for plasma by centrifugation at 4° C., 3200×g for 10 min. 15 μL plasma was stored at −80° C. for PK analysis. From 4 mice in Group 7 of the PD cohort, whole brain was collected after blood is harvested at 120 min post dose, rinsed with saline and patted dry and placed into a pre-weighed tube and stored at −80° C. collected for PK analysis.
PK bleeding group design is described in Table 9.
PK bleeding: 30 μL blood was collected at 0.25, 0.5, 1, 2, 4, and 8 h. Blood samples were processed for plasma by centrifugation at 4° C., 3200×g for 10 min. 12 μL plasma was collected at −80° C. for further analysis. From 3 mice in Group 7 of the PK cohort, whole brain was collected after blood is harvested at 8 hr post dose, rinsed with saline and patted dry and placed into a pre-weighed tube and stored at −80° C. collected for PK analysis.
For plasma: An aliquot of 3 μL sample was protein precipitated with 60 μL internal standard (100 ng/mL Labetalol & 100 ng/ml Dexamethasone & 100 ng/ml Tolbutamide & 100 ng/mL Verapamil & 100 ng/ml Glyburide & 100 ng/ml Celecoxib in ACN) and then the mixture was vortex-mixed for 10 min at 800 rpm and centrifuged for 15 min at 3220×g, 4° C.
The linear/log trapezoidal rule was applied in obtaining the PK parameters. Individual plasma concentration values that were below the lower limit of quantitation (LOQ) were excluded from the PK parameter calculation. The nominal dose levels and nominal sampling times were used in the calculation of all pharmacokinetic parameters.

[1] = hGLP-1R mouse plasma, PO 0.3 mg/kg, individual mice, 0.3 mg/kg
[2] = hGLP-1R mouse plasma, PO 0.3 mg/kg, mean
[3] = hGLP-1R mouse plasma, PO 1 mg/kg, individual mice, 1 mg/kg
[4] = hGLP-1R mouse plasma, PO 1 mg/kg, mean

## N#Cc1ccc(COc2cccc(C3CCN(Cc4nc5ccc(C(=O)O)cc5n4C[C@@H]4CCO4)CC3)n2)c(F)c1 [Reference Compound A, reference compound]
hGLP-1R mice, PO, Reference Compound A 0.3-1 mg/kg, Compound 2 0.3-3 mg/kg
  increase of exposure with dose (dose proportionality): approximately dose proportional manner
hGLP-1R mouse plasma collected at 120 min (IPGTT cohort), PO 0.3 mg/kg, individual animals, 0.3 mg/kg
  Concentration: 8.61 ng/mL and 8.10 ng/mL and 5.55 ng/mL and 7.19 ng/mL and 6.60 ng/mL and 6.14 ng/mL
hGLP-1R mouse plasma collected at 120 min (IPGTT cohort), PO 1 mg/kg, individual animals, 1 mg/kg
  Concentration: 29.7 ng/mL and 31.0 ng/mL and 17.9 ng/mL and 14.2 ng/mL and 15.9 ng/mL and 14.9 ng/mL and 26.5 ng/mL
hGLP-1R mouse plasma, PO 0.3 mg/kg, 0.25 h, individual animals, 0.3 mg/kg
  Concentration: 11.2 ng/mL and 16.7 ng/mL and 46.8 ng/mL
hGLP-1R mouse plasma, PO 0.3 mg/kg, 0.5 h, individual animals, 0.3 mg/kg
  Concentration: 17.6 ng/mL and 14.6 ng/mL
hGLP-1R mouse plasma, PO 0.3 mg/kg, 1 h, individual animals, 0.3 mg/kg
  Concentration: 13.4 ng/mL and 23.5 ng/mL and 11.1 ng/mL
hGLP-1R mouse plasma, PO 0.3 mg/kg, 2 h, individual animals, 0.3 mg/kg
  Concentration: 2.43 ng/mL and 4.91 ng/mL and 2.76 ng/mL
hGLP-1R mouse plasma, PO 0.3 mg/kg, 4 h, individual animals, 0.3 mg/kg
  Concentration: BQL
hGLP-1R mouse plasma, PO 0.3 mg/kg, 8 h, individual animals
  Concentration: BQL
hGLP-1R mouse plasma, PO 0.3 mg/kg, individual mice
  Tlast: 2.00 h
[1]
  AUC0-inf: 22.9 ng·h/mL and 40.5 ng·h/mL and 19.4 ng·h/mL
  AUC0-last: 21.2 ng·h/mL and 35.4 ng·h/mL and 17.0 ng·h/mL
  AUCExtra: 7.39% and 12.7% and 12.4%
  AUMCExtra: 21.1% and 35.8% and 32.0%
  Cmax: 19.6 ng/mL and 46.8 ng/mL and 14.6 ng/mL
  MRT0-inf: 1.08 h and 1.11 h
  MRT0-last: 0.797 h and 0.861 h
  T1/2: 0.727* h and 0.602 h
  Tmax: 15 min
[2]
  AUCExtra: 10.8%
  AUMCExtra: 29.6%
  Tlast: 2.00 h
hGLP-1R mouse plasma, PO 1 mg/kg, 0.25 h, individual animals, 1 mg/kg
  Concentration: 31.9 ng/mL and 31.8 ng/mL
hGLP-1R mouse plasma, PO 1 mg/kg, 0.5 h, individual animals, 1 mg/kg
  Concentration: 40.2 ng/mL and 41.2 ng/mL
hGLP-1R mouse plasma, PO 1 mg/kg, 1 h, individual animals, 1 mg/kg
  Concentration: 48.7 ng/mL and 23.7 ng/mL and 46.0 ng/mL
hGLP-1R mouse plasma, PO 1 mg/kg, 2 h, individual animals, 1 mg/kg
  Concentration: 22.4 ng/mL and 5.72 ng/mL and 15.4 ng/mL
hGLP-1R mouse plasma, PO 1 mg/kg, 4 h, individual animals, 1 mg/kg
  Concentration: BQL and 3.21 ng/mL
hGLP-1R mouse plasma, PO 1 mg/kg, 8 h, individual animals
  Concentration: BQL
[3]
  AUC0-inf: 86.4 ng·h/mL and 89.9 ng·h/mL
  AUC0-last: 68.7 ng·h/mL and 86.7 ng·h/mL
  AUCExtra: 3.91% and 20.5% and 3.54%
  AUMCExtra: 13.8% and 58.3% and 18.2%
  Cmax: 40.2 ng/mL and 46.0 ng/mL
  MRT0-inf: 1.45 h and 4.55 h and 2.05 h
  MRT0-last: 2.39 h and 1.74 h
  T1/2: 0.791 h and 3.42* h and 1.77* h
  Tlast: 4.00 h and 8.00 h (2×)
  Tmax: 60 min
[4]
  AUCExtra: 9.32%
  AUMCExtra: 30.1%
male, C57BL/6J hGLP-1R, mouse, plasma, po, 0.3 mg/kg, hGLP-1R mice, total, PO 0.3 mg/kg, read-out: AUClast Mean
  AUC(0-t): 24.5 ng·h/mL
male, C57BL/6J hGLP-1R, mouse, plasma, po, 0.3 mg/kg, hGLP-1R mice, total, PO 0.3 mg/kg, read-out: Cmax Mean
  Cmax: 27 ng/mL
male, C57BL/6J hGLP-1R, mouse, plasma, po, 0.3 mg/kg, hGLP-1R mice, total, PO 0.3 mg/kg, read-out: T1/2 (converted)
  half-life: 36.2 min
male, C57BL/6J hGLP-1R, mouse, plasma, po, 0.3 mg/kg, hGLP-1R mice, total, PO 0.3 mg/kg, read-out: Tmax Median
  Tmax: 30 min
male, C57BL/6J hGLP-1R, mouse, plasma, po, 0.3 mg/kg, hGLP-1R mouse plasma collected at 120 min (IPGTT cohort), PO 0.3 mg/kg, individual animals, read-out: Concentration
  concentration at 120 min: 7.91 ng/mL
